Where two headings read alike, the source gives them in different places.
Tests used:
[1] = system: Arachidonic acid induced ear inflammation; assay: Assay (h): Arachidonic acid induced ear inflammation (ear edema, MPO); format: in vivo, mouse; conditions: for AA % change in edema / change in MPO, AA model: topical, standard inhibitors at doses of 0.2, 0.1 and 0.3 respectively
Protocol: (§1) Male Balb/c inbred mice are obtained from Charle River Breeding Laboratories (Kingston, N.Y.). Within a single experiment mice (22-25 g) are age-matched. These in vivo experiments typically involve the use of 5-6 animals/group.
(§2) On the day of the assay, partially thawed ear tissues are minced and then homogenized (10% w/v) with a Tissumizer homogenizer (Tekmar Co.) in 50 mM phosphate buffer (pH 6) containing 0.5% HTAB. The tissue homogenates are taken through three cycles of freeze-thaw, followed by brief sonication (10 sec). The method of Bradley et at. is used with modifications as described. […] Supernatant MPO activity is quantified kinetically (change in absorbance measured over 3 min, sampled at 15-sec intervals) using a Beckman DU-7 spectrophotometer and a Kinetics Analysis package (Beckman Instruments, Inc.). One unit of MPO activity is defined as that degrading one micromole of peroxide per minute at 25° C.
Arachidonic acid is dissolved in acetone (1 mg/ear) to the left ear of BALB/c male mice. The thickness of both cars is measured with a constant pressure thickness guage 1 hour after treatment and the data expressed as the change in thickness between treated and untreated ears. Test compounds or vehicle are given at the time of AA application. The inflammatory cell infiltration is measured by MPO activity as described above in the TPA ear edema assay. After the edema measurements are made, the inflamed ears are removed and assayed for MPO activity.

[2] = system: human neutrophils; assay: Assay (c): Arachidonic acid release assay, A23187-stimulated neutrophils; format: cell-based; conditions: at levels greater than 10 uM
Protocol: Human neutrophils are obtained in the laboratory using three different methods. One method uses leukophoresis packs from normal humans and neutrophils are isolated using the histopaque-1077 technique. The blood is centrifuged at 300×g for 10 minutes. The cell pellets are resuspended in PBS composed of 137 mM NaCl, 8.8 mM Na2HPO4, 1.5 mM KH2PO4, 2.7 mM KCI (Dulbecco's Gibco Laboratories, Long Island, N.Y.) and layered over histopaque-1077 (Sigma, St. Louis, Mo.). The pellets are collected after centrifugation (300×g for 30 minutes) and washed once in PBS. The cell pellets are exposed briefly to deionized water to lyse any erythrocytes. The remaining cells are collected by centrifugation, suspended in PBS, counted and identified after cytospinning and staining. The final leukocyte preparation will be of greater than 95% purity and viability.
The second method isolates human neutrophils from fresh heparinized normal blood using the Histopaque-1077 technique. […] The remaining cells are collected by centrifugation, suspended in PBS, counted and identified after cytospinning and staining. […]
The third method isolates human neutrophils from freshly drawn heparinized normal blood using the Percoil technique. […] The neutrophils are suspended in PBS, counted and identified after cytospinning and staining. […]

[3] = system: TPA-induced Mouse Ear Inflammation; assay: Assay (g): TPA-induced mouse ear inflammation (ear edema, MPO); format: in vivo; conditions: for TPA % change in edema / change in MPO, TPA model: topical, standard inhibitors at doses of 0.2, 0.1 and 0.3 respectively
Protocol: as §1
TPA (12-0-tetradecanoylphorbol 13-acetate) (Sigma Chemical Company) in acetone ([…]) is applied to the inner and outer surfaces of the left ear of BALB/c male mice. The thickness of both ears is then measured with a dial micrometer (Mitutoyo, Japan) at both 2 and 4 hours after treatment, and the data expressed as the change in thickness (10^-3 cm) between treated and untreated ears. […] After measuring the edema, the inflammed left ears are removed and stored at -70° C. until they were assayed for MPO (myeloperoxidase) activity where appropriate.
as §2
Statistical analysis is done using Student's "t" test.

[4] = target: T1, rh Type II-14 kDa PLA2 (Homo sapiens, UniProt P14555); assay: Assay (a): Phospholipase A2 assay, acylhydrolysis of [3H]-AA-E. coli; format: biochemical; conditions: generally tested at 50 μm levels
T1 sequence (P14555 21-144): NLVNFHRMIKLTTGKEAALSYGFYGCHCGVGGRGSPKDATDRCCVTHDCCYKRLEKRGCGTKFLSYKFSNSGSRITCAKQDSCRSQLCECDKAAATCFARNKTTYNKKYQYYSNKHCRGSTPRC
Protocol: Phospholipase A2 activity of rh Type II-14 kDa PLA2 or PLA2 semi-purified from human synovial joint fluid was measured by the acylhydrolysis of high specific activity (NEN)[^3 H]-AA-E. coli (0.5 mCi/5nmol PL Pi) as previously described in Marshall et at., J. Rheumatology, 18:1, pp59-65 (1991). […] [Predominately used herein was rh Type II 14 kDa PLA2, or alternatively bovine pancreatic PLA2 was also be used]. The reaction mixture ([…] total volume) contained 25 mM HEPES, pH 7.4, 150 mM NaCl, 5 mM CaCl2 and [^3 H]-AA-E. coli (low specific activity; 5-8 nmol PL Pi per assay). Assays were incelbated for a time predetermined to be on the linear portion of a time versus hydrolysis plot. Experiments were conducted with final % hydrolysis values ranging from 2% (400-1000 dpm) to 10% (2000-5000 dpm) acylhydrolysis after blank correction. Reactions were terminated by the addition of 1.0 mL tetrahydrofuran (THF). […] Radiolabel in this eluate was quantitated by liquid scintillation counting. Results were expressed as % of fatty acid hydrolyzed ([sample dpms-non-specific (blank) dpms/total dpms]×100) or specific activity which was calculated from hydrolysis values found in the linear portion of time versus % hydrolysis plots (pmol free fatty acid hydrolyzed mg/min). […]

[5] = system: human neutrophils; assay: Assay (d): Production of platelet-activating factor (PAF), A23187-stimulated neutrophils; format: cell-based
Protocol: Blood is obtained from normal humans and neutrophils are isolated as described for the arachidonic acid release assay, above. The final leukocyte preparation should be of greater than 95% purity and viability.
Neutrophils are suspended in PBS at concentrations of 5 to 20×10^6 cells per ml. Cells are added to test tubes and treated with the desired compounds for 5 to 10 minutes, then challenged with calcium ionophore A23187, 2 μM and 20-30 μCi of [3H]acetic acid (NEN-Dupont, Boston, Mass.), or the vehicle of PBS with 0.25-1 mg/ml. After 5 to 20 minutes, the reactions are terminated by addition of an equal volume of chloroform:methanol (1:2, v/v) to the samples and the lipiris are extracted by addition of equal volumes of chloroform and distilled water. The samples are vortexed and centrffuged at high speed and the chloroform layer removed to a clean tube.
The chloroform from each tube is evaporated to dryness and the material suspended in a small volume of chloroform or chloroform:methanol (25-100 μl) and the total material spotted on a Silica TLC plate. The plates are developed in chloroform/methanol/acetic acid/water (50:25:8:4, v/v) visualized by radioscanning (Bioscan) and the product, [^3 H]PAF, is scraped and quantified by liquid scintillation spectroscopy. With this TLC system, the Rf value for a synthetic standard of PAF is approximately 0.33.

[6] = system: human monocytes; assay: Assay (f): stimulated eicosanoid (PGE2, LTC4) release by human monocytes; format: cell-based; conditions: human monocyte cells, A23187
Protocol: Leukocyte-rich leukopaks obtained from Biological Specialties (Lansdale, Pa.) are collected from male volunteers who are not taking anti-inflammatory drugs. Leukopaks are centrifuged (90×g for 15 min) twice to remove the platelet-rich plasma. The cell pellet is washed by centrifugation and are resuspended in HBSS without Ca^2+ or Mg^2+. Histopaque 1077 is layered under the cell suspension and centrifuged at 400×g for 30 min to obtain the buffy coat. The interfacial buffy coat, containing monocytes and lymphocytes, is removed and saved. The buffy coat is washed twice with HBSS without Ca^2+ or Mg^2+ by centrifugation. The cell pellet (4-6×10^8 cells/30 mls) is resuspended in iso-osmotic media (RPMI-1640, 10% heat inactivated fetal bovine serum (FBS), 0.2 mM L-glutamine, 2.5 mM HEPES) and layered over an equal volume of 46% Percol mixture (10×PBS/Percol; 9.25/0.75) and 54% iso-osmotic media and centrifuged for 30 min at 1000×g (Marshall and Roshak, Biochem. Cell Biol. 71: 331-339, 1993). The monocyte population located at the interface of the Percoll gradient is removed and washed twice in HBSS without Ca^2+ or Mg^2+.
Monocytes (5×10^6 /ml are incubated as a suspension in serum-free RPMI-1640 medium containing the vehicle DMSO (<1%) or drug for 30 min at 27° C. after which vehicle or stimuli is added for the indicated time. The stimulating agent is solubilized in DMSO and appropriate vehicle controls are included in all experiments. The amount of stimuli is chosen from the linear portion of a concentration versus product curve usually representing 60-80% maximal stimulation over the indicated incubation time at 37° C. (A23187, 1 μM, (15 min). The reaction is terminated by reduction of pH through addition of citric acid and centrifugation (10 min, 400×g, 4° C.). Cell viability is monitored before and after experiments using trypan blue exclusion. The cell-free media is decanted and stored at -70° C. until analyzed. Prostaglandin E2 and LTC4 are directly measured in cell-free media using enzyme immunoassay (EIA) kits purchased from Caymen Chemical Co. (Ann Arbor, Mich.) Sample or standard dilutions are made with appropriate media and analyzed in triplicate. Results are obtained by extrapolation from a standard curve prepared in the media and expressed as pg or ng/ml of sample.

[7] = system: CoA-IT; assay: Assay (b): CoA-IT activity in U937 cell microsomes; format: biochemical, human
[8] = read-out: IC50 for LTC4 release

PLA2 inhibition [4]	IC50 [6, 8] [µM]	IC50 ([6]; read-out: IC50 of PGE2 release) [µM]	SMILES	inhibitory activity in arachidonic acid release assay [2]	AA % change in edema [1] [%]	change in MPO, AA model [1]	TPA % change in edema [3] [%]	change in MPO, TPA model [3]	further results
positive PLA2 inhibition	0.22	< 0.1	NC(=O)N(O)CCC(CSc1ccc(Cc2ccccc2)cc1)NC(=O)CCCCCCc1ccccc1 (racemic) [Example 1, N-[3-(7-phenylheptylamido)-4-(4-phenylmethyl)phenylthio]-butyl-N-hydroxy urea]	weak inhibitory activity					MPO, AA ear model ([1]; 1 mg/ear): -53%; reduction in ear swelling, AA ear model ([1]; 1 mg/ear): -36%; MPO activity, percent change, TPA ear model ([3]; topically, 1 mg/ear): -68%; ear swelling (edema), percent change, TPA ear model ([3]; topically, 1 mg/ear): -43%; inhibition of inflammatory cell infiltration, TPA ear model ([3]; typically dosed at 50 mg/ear): demonstrated activity as an inhibitor of the inflammatory cell infiltration; IC50 ([5]; Neutrophil, human neutrophils, A23187): ~10 µM; CoA-IT inhibitory activity ([7]; generally tested at 50 μm levels): positive CoA-IT inhibitory activity
positive PLA2 inhibition	0.521	~0.1	N#CCC(CSc1ccc(Cc2ccccc2)cc1)NC(=O)CCCCCCc1ccccc1 (stereo not drawn) [Example 2, [3-(7-Phenylheptylamido)-4-(4-phenylmethyl)phenylthio]butylnitrile]	weak inhibitory activity					inhibitory activity in PAF production assay ([5]; at greater than 30 uM): did not demonstrate positivr activity; CoA-IT inhibitory activity ([7]; at levels of greater than 30 uM): did not demonstrate positive activity
			C[C@H](C(=O)O)c1ccc2cc(OCc3ccc4ccccc4n3)ccc2c1 [WY 50,295]		-50	-90	-18	-36	
			C[C@@H]1C[C@H]2[C@@H]3CCC4=CC(=O)C=C[C@]4(C)[C@@]3(F)[C@@H](O)C[C@]2(C)[C@@]1(O)C(=O)CO [dexamethasone]		-10	0	-50	-54	
			CC(=O)O[C@H]1C[C@@H]2[C@@]3(C)CCCC(C)(C)[C@@H]3CC[C@@]2(C)[C@@H]2CC=C(C=O)[C@H](C=O)[C@@]12C [scalaradial]			-33		-65	
